Earlier results in patent US20090142410A1, “Nutritional composition and method for increasing creatine uptake and retention in skeletal muscle, increasing muscle mass and strength, increasing exercise capacity and for aiding recovery following exercise” (priority 2006, published 2009).

Settings: concomitant ingestion with carbohydrates

CN(CC(=O)O)C(=N)N [Creatine, N-methyl-N-guanyl Glycine]
improvement of Creatine retention: up to 60%
